Data: US11542304B2, “Multimeric bicyclic peptide ligands” (BicycleTx Limited, priority 2018, dated 2023)

Target: CD137 (Homo sapiens, UniProt Q07011)
Assay: CD137 Promega reporter cell activity assay (NF-κB luciferase in Jurkat cells)
Conditions: for Average Fold EC50 Improvement relative to CD137L: Average EC50 for CD137L = 14.2 nM; for Average Relative Fold Induction relative to CD137L: Average fold induction for CD137L = 4.0
Protocol: CD137 binding multimers were evaluated for CD137 using a Reporter cell activity assay that uses NF-κB luciferase luminescence as a read-out of CD137 activation in Jurkat cells. […] Samples were diluted at concentration expected to give the maximum fold induction and then titrated down in 1/3 dilution series or 1/10 dilution series in a sterile 96 well-plate. […] 50 μl cells were added per well to white cell culture plates.
Cells were co-incubated together with agonists for 6 h at 37° C., 5% CO2. After 6 h Bio-Glo™ was thawed and the assay developed at room-temperature. 75 ul Bio-Glo™ was added per well and incubated for 5-10 min. Luciferase signal was read on a Pherastar plate-reader using MARS program. Data was analysed by transforming the data to x=log (X), then plotting log (agonist) vs. response variable slope (4 parameters) to calculate EC50 values.

Chain of CD137 (Q07011 24-255): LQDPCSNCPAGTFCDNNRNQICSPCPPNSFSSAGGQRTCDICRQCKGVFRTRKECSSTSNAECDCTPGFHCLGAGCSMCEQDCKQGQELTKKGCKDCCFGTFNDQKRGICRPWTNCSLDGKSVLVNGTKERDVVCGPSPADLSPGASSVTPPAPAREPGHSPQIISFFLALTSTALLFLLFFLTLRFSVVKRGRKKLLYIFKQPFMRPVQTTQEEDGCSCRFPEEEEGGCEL

CC[C@H](C)[C@@H]1NC(=O)[C@@H](NC(=O)[C@H](C)NC(C)=O)CSCCC(=O)N2CN3CN(C2)C(=O)CCSC[C@H](NC(=O)[C@H](Cc2ccc(O)cc2)NC(=O)[C@H](CCC(N)=O)NC(=O)CNC(=O)[C@H](CCC(=O)O)NC(=O)[C@H](CCC(=O)O)NC1=O)C(=O)N[C@@H](Cc1ccccc1)C(=O)N[C@@H](C)C(=O)N[C@@H](CC(=O)O)C(=O)N1CCC[C@H]1C(=O)N[C@@H](Cc1ccc(O)cc1)C(=O)N[C@@H](CCCCNC(=O)OCC1C2CCc4nnn(CCOCCOCCOCCOCCOCCOCCOCCOCCOCCOCCNC(=O)CCOCCN(CCOCCC(=O)NCCOCCOCCOCCOCCOCCOCCOCCOCCOCCOCCn5nnc6c5CCC5C(CC6)C5COC(=O)NCCCC[C@@H]5NC(=O)[C@H](Cc6ccc(O)cc6)NC(=O)[C@@H]6CCCN6C(=O)[C@H](CC(=O)O)NC(=O)[C@H](C)NC(=O)[C@H](Cc6ccccc6)NC(=O)[C@@H]6CSCCC(=O)N7CN(CN(C7)C(=O)CCSC[C@@H](C(=O)N[C@@H](C)C(N)=O)NC5=O)C(=O)CCSC[C@H](NC(=O)[C@H](C)NC(C)=O)C(=O)N[C@@H]([C@@H](C)CC)C(=O)N[C@@H](CCC(=O)O)C(=O)N[C@@H](CCC(=O)O)C(=O)NCC(=O)N[C@@H](CCC(N)=O)C(=O)N[C@@H](Cc5ccc(O)cc5)C(=O)N6)CCOCCC(=O)NCCOCCOCCOCCOCCOCCOCCOCCOCCOCCOCCn5nnc6c5CCC5C(CC6)C5COC(=O)NCCCC[C@@H]5NC(=O)[C@H](Cc6ccc(O)cc6)NC(=O)[C@@H]6CCCN6C(=O)[C@H](CC(=O)O)NC(=O)[C@H](C)NC(=O)[C@H](Cc6ccccc6)NC(=O)[C@@H]6CSCCC(=O)N7CN(CN(C7)C(=O)CCSC[C@@H](C(=O)N[C@@H](C)C(N)=O)NC5=O)C(=O)CCSC[C@H](NC(=O)[C@H](C)NC(C)=O)C(=O)N[C@@H]([C@@H](C)CC)C(=O)N[C@@H](CCC(=O)O)C(=O)N[C@@H](CCC(=O)O)C(=O)NCC(=O)N[C@@H](CCC(N)=O)C(=O)N[C@@H](Cc5ccc(O)cc5)C(=O)N6)c4CCC21)C(=O)N[C@H](C(=O)N[C@@H](C)C(N)=O)CSCCC3=O (some centres unmarked) [BCY8106]
Average Fold EC50 Improvement relative to CD137L: 1.26 | Average Relative Fold Induction relative to CD137L: 0.94

CC[C@H](C)[C@@H]1NC(=O)[C@@H](NC(=O)[C@H](C)NC(C)=O)CSCCC(=O)N2CN3CN(C2)C(=O)CCSC[C@H](NC(=O)[C@H](Cc2ccc(O)cc2)NC(=O)[C@H](CCC(N)=O)NC(=O)CNC(=O)[C@H](CCC(=O)O)NC(=O)[C@H](CCC(=O)O)NC1=O)C(=O)N[C@@H](Cc1ccccc1)C(=O)N[C@@H](C)C(=O)N[C@@H](CC(=O)O)C(=O)N1CCC[C@H]1C(=O)N[C@@H](Cc1ccc(O)cc1)C(=O)N[C@@H](CCCCNC(=O)OCC1C2CCc4nnn(CCOCCOCCOCCOCCOCCOCCOCCOCCOCCOCCOCCOCCOCCOCCOCCOCCOCCOCCOCCOCCOCCOCCOCCNC(=O)CCOCCN(CCOCCC(=O)NCCOCCOCCOCCOCCOCCOCCOCCOCCOCCOCCOCCOCCOCCOCCOCCOCCOCCOCCOCCOCCOCCOCCOCCn5nnc6c5CCC5C(CC6)C5COC(=O)NCCCC[C@@H]5NC(=O)[C@H](Cc6ccc(O)cc6)NC(=O)[C@@H]6CCCN6C(=O)[C@H](CC(=O)O)NC(=O)[C@H](C)NC(=O)[C@H](Cc6ccccc6)NC(=O)[C@@H]6CSCCC(=O)N7CN(CN(C7)C(=O)CCSC[C@@H](C(=O)N[C@@H](C)C(N)=O)NC5=O)C(=O)CCSC[C@H](NC(=O)[C@H](C)NC(C)=O)C(=O)N[C@@H]([C@@H](C)CC)C(=O)N[C@@H](CCC(=O)O)C(=O)N[C@@H](CCC(=O)O)C(=O)NCC(=O)N[C@@H](CCC(N)=O)C(=O)N[C@@H](Cc5ccc(O)cc5)C(=O)N6)CCOCCC(=O)NCCOCCOCCOCCOCCOCCOCCOCCOCCOCCOCCOCCOCCOCCOCCOCCOCCOCCOCCOCCOCCOCCOCCOCCn5nnc6c5CCC5C(CC6)C5COC(=O)NCCCC[C@@H]5NC(=O)[C@H](Cc6ccc(O)cc6)NC(=O)[C@@H]6CCCN6C(=O)[C@H](CC(=O)O)NC(=O)[C@H](C)NC(=O)[C@H](Cc6ccccc6)NC(=O)[C@@H]6CSCCC(=O)N7CN(CN(C7)C(=O)CCSC[C@@H](C(=O)N[C@@H](C)C(N)=O)NC5=O)C(=O)CCSC[C@H](NC(=O)[C@H](C)NC(C)=O)C(=O)N[C@@H]([C@@H](C)CC)C(=O)N[C@@H](CCC(=O)O)C(=O)N[C@@H](CCC(=O)O)C(=O)NCC(=O)N[C@@H](CCC(N)=O)C(=O)N[C@@H](Cc5ccc(O)cc5)C(=O)N6)c4CCC21)C(=O)N[C@H](C(=O)N[C@@H](C)C(N)=O)CSCCC3=O (some centres unmarked) [BCY8107]
Average Fold EC50 Improvement relative to CD137L: 64.33 | Average Relative Fold Induction relative to CD137L: 0.64

CC[C@H](C)[C@@H]1NC(=O)[C@@H](NC(=O)[C@H](C)NC(C)=O)CSCCC(=O)N2CN3CN(C2)C(=O)CCSC[C@H](NC(=O)[C@H](Cc2ccc(O)cc2)NC(=O)[C@H](CCC(N)=O)NC(=O)CNC(=O)[C@H](CCC(=O)O)NC(=O)[C@H](CCC(=O)O)NC1=O)C(=O)N[C@@H](Cc1ccccc1)C(=O)N[C@@H](C)C(=O)N[C@@H](CC(=O)O)C(=O)N1CCC[C@H]1C(=O)N[C@@H](Cc1ccc(O)cc1)C(=O)N[C@@H](CCCCNC(=O)OCC1C2CCc4nnn(CCOCCOCCOCCOCCOCCOCCOCCOCCOCCOCCNC(=O)CCOCC(COCCC(=O)NCCOCCOCCOCCOCCOCCOCCOCCOCCOCCOCCn5nnc6c5CCC5C(CC6)C5COC(=O)NCCCC[C@@H]5NC(=O)[C@H](Cc6ccc(O)cc6)NC(=O)[C@@H]6CCCN6C(=O)[C@H](CC(=O)O)NC(=O)[C@H](C)NC(=O)[C@H](Cc6ccccc6)NC(=O)[C@@H]6CSCCC(=O)N7CN(CN(C7)C(=O)CCSC[C@@H](C(=O)N[C@@H](C)C(N)=O)NC5=O)C(=O)CCSC[C@H](NC(=O)[C@H](C)NC(C)=O)C(=O)N[C@@H]([C@@H](C)CC)C(=O)N[C@@H](CCC(=O)O)C(=O)N[C@@H](CCC(=O)O)C(=O)NCC(=O)N[C@@H](CCC(N)=O)C(=O)N[C@@H](Cc5ccc(O)cc5)C(=O)N6)(COCCC(=O)NCCOCCOCCOCCOCCOCCOCCOCCOCCOCCOCCn5nnc6c5CCC5C(CC6)C5COC(=O)NCCCC[C@@H]5NC(=O)[C@H](Cc6ccc(O)cc6)NC(=O)[C@@H]6CCCN6C(=O)[C@H](CC(=O)O)NC(=O)[C@H](C)NC(=O)[C@H](Cc6ccccc6)NC(=O)[C@@H]6CSCCC(=O)N7CN(CN(C7)C(=O)CCSC[C@@H](C(=O)N[C@@H](C)C(N)=O)NC5=O)C(=O)CCSC[C@H](NC(=O)[C@H](C)NC(C)=O)C(=O)N[C@@H]([C@@H](C)CC)C(=O)N[C@@H](CCC(=O)O)C(=O)N[C@@H](CCC(=O)O)C(=O)NCC(=O)N[C@@H](CCC(N)=O)C(=O)N[C@@H](Cc5ccc(O)cc5)C(=O)N6)COCCC(=O)NCCOCCOCCOCCOCCOCCOCCOCCOCCOCCOCCn5nnc6c5CCC5C(CC6)C5COC(=O)NCCCC[C@@H]5NC(=O)[C@H](Cc6ccc(O)cc6)NC(=O)[C@@H]6CCCN6C(=O)[C@H](CC(=O)O)NC(=O)[C@H](C)NC(=O)[C@H](Cc6ccccc6)NC(=O)[C@@H]6CSCCC(=O)N7CN(CN(C7)C(=O)CCSC[C@@H](C(=O)N[C@@H](C)C(N)=O)NC5=O)C(=O)CCSC[C@H](NC(=O)[C@H](C)NC(C)=O)C(=O)N[C@@H]([C@@H](C)CC)C(=O)N[C@@H](CCC(=O)O)C(=O)N[C@@H](CCC(=O)O)C(=O)NCC(=O)N[C@@H](CCC(N)=O)C(=O)N[C@@H](Cc5ccc(O)cc5)C(=O)N6)c4CCC21)C(=O)N[C@H](C(=O)N[C@@H](C)C(N)=O)CSCCC3=O (some centres unmarked) [BCY8108]
Average Fold EC50 Improvement relative to CD137L: 34.03 | Average Relative Fold Induction relative to CD137L: 0.79

CCCC[C@@H]1NC(=O)[C@H](Cc2ccc(O)cc2)NC(=O)[C@@H]2CCCN2C(=O)[C@H](CC(=O)O)NC(=O)[C@H](C)NC(=O)[C@H](CCCCNC(=O)OCC2C3CCc4nnn(CCOCCOCCOCCOCCOCCOCCOCCOCCOCCOCCNC(=O)CCOCC(COCCC(=O)NCCOCCOCCOCCOCCOCCOCCOCCOCCOCCOCCn5nnc6c5CCC5C(CC6)C5COC(=O)NCCCC[C@@H]5NC(=O)[C@@H]6CSCCC(=O)N7CN(CN(C7)C(=O)CCSC[C@@H](C(=O)N[C@@H](C)C(N)=O)NC(=O)[C@H](CCCC)NC(=O)[C@H](Cc7ccc(O)cc7)NC(=O)[C@@H]7CCCN7C(=O)[C@H](CC(=O)O)NC(=O)[C@H](C)NC5=O)C(=O)CCSC[C@H](NC(=O)[C@H](C)NC(C)=O)C(=O)N[C@@H]([C@@H](C)CC)C(=O)N[C@@H](CCC(=O)O)C(=O)N[C@@H](CCC(=O)O)C(=O)NCC(=O)N[C@@H](CCC(N)=O)C(=O)N[C@@H](Cc5ccc(O)cc5)C(=O)N6)(COCCC(=O)NCCOCCOCCOCCOCCOCCOCCOCCOCCOCCOCCn5nnc6c5CCC5C(CC6)C5COC(=O)NCCCC[C@@H]5NC(=O)[C@@H]6CSCCC(=O)N7CN(CN(C7)C(=O)CCSC[C@@H](C(=O)N[C@@H](C)C(N)=O)NC(=O)[C@H](CCCC)NC(=O)[C@H](Cc7ccc(O)cc7)NC(=O)[C@@H]7CCCN7C(=O)[C@H](CC(=O)O)NC(=O)[C@H](C)NC5=O)C(=O)CCSC[C@H](NC(=O)[C@H](C)NC(C)=O)C(=O)N[C@@H]([C@@H](C)CC)C(=O)N[C@@H](CCC(=O)O)C(=O)N[C@@H](CCC(=O)O)C(=O)NCC(=O)N[C@@H](CCC(N)=O)C(=O)N[C@@H](Cc5ccc(O)cc5)C(=O)N6)COCCC(=O)NCCOCCOCCOCCOCCOCCOCCOCCOCCOCCOCCn5nnc6c5CCC5C(CC6)C5COC(=O)NCCCC[C@@H]5NC(=O)[C@@H]6CSCCC(=O)N7CN(CN(C7)C(=O)CCSC[C@@H](C(=O)N[C@@H](C)C(N)=O)NC(=O)[C@H](CCCC)NC(=O)[C@H](Cc7ccc(O)cc7)NC(=O)[C@@H]7CCCN7C(=O)[C@H](CC(=O)O)NC(=O)[C@H](C)NC5=O)C(=O)CCSC[C@H](NC(=O)[C@H](C)NC(C)=O)C(=O)N[C@@H]([C@@H](C)CC)C(=O)N[C@@H](CCC(=O)O)C(=O)N[C@@H](CCC(=O)O)C(=O)NCC(=O)N[C@@H](CCC(N)=O)C(=O)N[C@@H](Cc5ccc(O)cc5)C(=O)N6)c4CCC32)NC(=O)[C@@H]2CSCCC(=O)N3CN(CN(C3)C(=O)CCSC[C@@H](C(=O)N[C@@H](C)C(N)=O)NC1=O)C(=O)CCSC[C@H](NC(=O)[C@H](C)NC(C)=O)C(=O)N[C@@H]([C@@H](C)CC)C(=O)N[C@@H](CCC(=O)O)C(=O)N[C@@H](CCC(=O)O)C(=O)NCC(=O)N[C@@H](CCC(N)=O)C(=O)N[C@@H](Cc1ccc(O)cc1)C(=O)N2 (some centres unmarked) [BCY8147]
Average Fold EC50 Improvement relative to CD137L: 50.58 | Average Relative Fold Induction relative to CD137L: 1.04
